Assay results reported in ChEMBL document CHEMBL6121054, “Discovery of Metabolic Reprogramming 2-Quinolones as Effective Antimicrobials for MRSA-Infected Wound Therapy” (J Med Chem, 2025).
In brackets after ≈: the same amount, converted by molar mass. Activity calls are given as the source filed them. No cut-off for these calls is given here.

How the values were obtained:
J774.A1 = test: Cytotoxicity against mouse J774.A1 cells assessed as cell viability upto 8 ug/ml incubated for 6 hrs by LDH assay; format: toxicity, cell-based; details: j774.a1, 6 h, dose < 8 µg/ml
Listeria monocytogenes = test: Antibacterial activity against Listeria monocytogenes ATCC 19115 incubated for 16 to 24 hrs by broth microdilution method; format: functional; details: time 16-24 hrs
Staphylococcus aureus [1] = test: Antibacterial activity against Staphylococcus aureus USA300 at 2 times MIC measured upto 24 hrs in presence of alpha-tocopherol; format: functional, organism-based
Staphylococcus aureus [2] = test: Effect on biosynthesis of co-factors in Staphylococcus aureus USA300 at 4 times MIC by KEGG analysis; format: functional, organism-based

For `CCn1c(=O)c(C(=O)Nc2nnc(-c3ccc(C)cn3)s2)c(O)c2ccccc21`, the Activity (J774.A1) was “Non-toxic”, the MIC (Listeria monocytogenes) was 0.02 µg/mL (≈ 0.0491 µM) and the Activity (Staphylococcus aureus [1]) was “inactive”. For the same molecule, the Activity (Staphylococcus aureus [2]) was “Active”.
